The values below come from publication PMC13147306 (The Febs Journal, 2025).

The test system of experiment [1] is AthePKS. Description: steady-state kinetics, HPLC of product 1b. The format is biochemical. The settings on record: read-out: apparent Km; 400 μM malonyl-CoA, 50 mM Tris/HCl pH 7.5, 37 °C.
Experiment [2] addresses T1, DnrK (Streptomyces peucetius, UniProt Q06528).
T1 sequence (Q06528 1-356): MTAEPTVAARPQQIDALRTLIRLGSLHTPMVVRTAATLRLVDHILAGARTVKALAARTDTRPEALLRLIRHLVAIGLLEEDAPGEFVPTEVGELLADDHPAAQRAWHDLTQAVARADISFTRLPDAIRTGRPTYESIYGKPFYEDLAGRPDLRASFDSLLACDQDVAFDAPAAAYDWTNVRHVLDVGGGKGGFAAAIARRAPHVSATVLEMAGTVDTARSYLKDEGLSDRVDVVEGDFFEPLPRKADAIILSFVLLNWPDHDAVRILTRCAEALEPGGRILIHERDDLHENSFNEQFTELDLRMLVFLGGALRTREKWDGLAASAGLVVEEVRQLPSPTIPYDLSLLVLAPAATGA
Description: O-methylation assay, LC-MS/HPLC. Format: biochemical. The settings on record: 0.5 mM substrate, 2 mM SAM, 5 μM enzyme, HEPES-NaOH pH 8, 37 °C, 24 h.

As a reminder, the Km is the concentration of substrate that gives half-maximal velocity. `CNc1ccccc1C(=O)SCCNC(=O)CCNC(=O)[C@H](O)C(C)(C)COP(=O)(O)OP(=O)(O)OC[C@H]1O[C@@H](n2cnc3c(N)ncnc32)[C@H](O)[C@@H]1OP(=O)(O)O` [1a, N-methylanthraniloyl-CoA]: in experiment [1], the Km turned out to be 42.6 µM.

Take `Cn1c(=O)cc(O)c2ccccc21` [1b, 4-hydroxy-1-methyl-2-quinolone]: the “O-methylation assay, LC-MS/HPLC” value in experiment [2] is reported as “DnrK was still the best‐performing enzyme”.

`O=c1cc(O)c2ccccc2[nH]1` [2b]: in experiment [2], the “O-methylation assay, LC-MS/HPLC” value was “it was also active with the other heterocycles 2b, 6b, and 8b”.
